Measured values reported in PubChem BioAssay (NCI).
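Tested at 5 concentrations; 48 h exposure; 96-well plates; endpoints linearly interpolated, else capped at highest concentration. GI50: concentration for 50% inhibition of growth. TGI is the concentration that stops growth completely.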

Experiments:
Assay in all cases: DTP human tumour cell line panel, 48 h
[1] = test system: EKVX NSCLC
[2] = test system: HCT-15 colon
[3] = test system: HOP-62 NSCLC
[4] = test system: SK-MEL-2 melanoma
[5] = test system: CAKI-1 renal
[6] = test system: A549 NSCLC
[7] = test system: SF-268 CNS
[8] = test system: CCRF-CEM leukemia
[9] = test system: K-562 leukemia
[10] = test system: OVCAR-5 ovarian

| Structure (SMILES) | TGI [1] | TGI [2] | TGI [3] | TGI [4] | TGI [5] | TGI [6] | TGI [7] | TGI [8] | TGI [9] | TGI [10] | GI50 [1] | GI50 [2] | GI50 [3] | GI50 [4] | GI50 [5] | GI50 [6] | GI50 [7] | GI50 [8] | GI50 [9] | GI50 [10] |
| --- | --- | --- | --- | --- | --- | --- | --- | --- | --- | --- | --- | --- | --- | --- | --- | --- | --- | --- | --- | --- |
| CC(C)CCC[C@@H](C)C1CCC2[C@@H]3CC=C4C[C@@H](C(=O)NCC[N+](C)(C)CCCS(=O)(=O)[O-])CC[C@]4(C)C3CC[C@@]21C (stereo not given in full) | 31 µM | 30.9 µM | 42.9 µM | 32.4 µM | 27.2 µM | 31.7 µM | 37.8 µM | 31.5 µM | 29.9 µM |  |  |  |  |  |  |  |  |  |  |  |
| O=C(O)CNc1ccc(C(=O)O)cc1 | > 100 µM | > 100 µM | > 100 µM | > 100 µM | > 100 µM | > 100 µM | > 100 µM | > 100 µM | > 100 µM | > 100 µM |  |  |  |  |  |  |  |  |  |  |
| S=P1(N2CCCCC2)Oc2ccc3ccccc3c2-c2c(ccc3ccccc23)O1 | > 100 µM | > 100 µM | > 100 µM | > 100 µM | > 100 µM | > 100 µM | > 100 µM | > 31.6 µM | > 100 µM | > 100 µM |  |  |  |  |  |  |  |  |  |  |
| O=[N+]([O-])c1ccccc1NC1c2ccccc2Oc2ccccc21 | > 100 µM | > 100 µM | > 100 µM | > 100 µM | > 100 µM | > 100 µM | > 100 µM | > 100 µM | > 100 µM |  | 17.2 µM | 3.5 µM | 8.07 µM | 8.43 µM | 11 µM | 6.51 µM | 8.06 µM | 4.44 µM | 3.69 µM |  |
| Cc1ccc([N+](=O)[O-])cc1S(=O)(=O)Nc1ccc(C2=NNC(c3ccccc3O)C2)cc1 (stereo not given) | 56.9 µM | 97.6 µM | 57.7 µM | 65.6 µM | > 100 µM | > 100 µM | > 100 µM | > 100 µM | > 100 µM | > 100 µM |  |  |  |  |  |  |  |  |  |  |
| CN1CCCCC(C#N)(c2ccccc2)CC1 (stereo not given) | > 100 µM | > 100 µM | > 100 µM |  | > 100 µM | > 100 µM | > 100 µM | > 100 µM | > 100 µM | > 100 µM |  |  |  |  |  |  |  |  |  |  |
| N=C(N)c1ccc(-c2ccc(-c3ccccc3)s2)cc1 | 11.4 µM |  |  | 4.1 µM | 2.92 µM | 4.73 µM |  | 4.57 µM |  | 2.94 µM | 2.65 µM |  |  | 1.97 µM | 1.58 µM | 2.14 µM |  | 1.97 µM |  | 1.59 µM |
| CC(=O)Oc1ccc2c(c1)oc1c3ccc(OC(C)=O)cc3n(C)c(=O)c21 | 70.8 µM | > 100 µM | > 100 µM |  |  | > 100 µM | 78.2 µM | > 100 µM | > 100 µM | > 100 µM |  |  |  |  |  |  |  |  |  |  |
| C=C1C(=O)C[C@@]23CCC[C@@]12CC(OCOC)C3 (stereo not given in full) | 16.7 µM | 3.08 µM | 25.9 µM | 11.2 µM | 6.94 µM | 28.4 µM | 17.5 µM | 6.81 µM | > 51.5 µM | 8.26 µM |  |  |  |  |  |  |  |  |  |  |
| N=c1c2c(=S)n(-c3ccccc3)c(=S)n(-c3ccccc3)c2nc(SCCCN2CCN(c3cccc(Cl)c3)CC2)n1-c1ccccc1 | > 100 µM | > 100 µM | > 100 µM | > 100 µM | > 100 µM |  |  | > 100 µM | > 100 µM | > 100 µM |  |  |  |  |  |  |  |  |  |  |
| Cc1cc(C)c2c(c1)CC1(Cc3c(C)ccc(C)c3C1=O)C2=O (stereo not given) | > 100 µM | > 100 µM |  | > 100 µM | > 100 µM | > 100 µM | > 100 µM | > 100 µM | > 100 µM | > 100 µM |  |  |  |  |  |  |  |  |  |  |
| CCCCCCCC/C=C\CCCCCCCC(=O)O | 164 µM | 338 µM | > 500 µM | > 281 µM | 206 µM | 226 µM | 192 µM | 197 µM | 219 µM | > 500 µM |  |  |  |  |  |  |  |  |  |  |
| COC(=O)c1cccc(N[C@@H]2c3cc4c(cc3C(c3cc(OC)c(O)c(OC)c3)[C@H]3C(=O)OCC32)OCO4)c1 (stereo not given in full) | > 26.6 µM | 4.54 µM | 0.937 µM | > 63 µM | 2.91 µM | 3.25 µM | > 42.5 µM | 5.23 µM | 20.6 µM | > 100 µM |  |  |  |  |  |  |  |  |  |  |
| CCN(CC)CCCNc1ncc(C)c2[nH]c3ccncc3c12 | 63.3 µM | > 100 µM | 79.5 µM | 23.6 µM |  | 22.7 µM | 32.4 µM | > 71.5 µM | > 100 µM | 26.7 µM |  |  |  |  |  |  |  |  |  |  |
| COc1cc(/C=C/c2cc(/C=C/c3ccc(O)c(OC)c3)nc(N)n2)ccc1O | 6.83 µM | 10.3 µM |  |  | 6.46 µM | 6.04 µM | 15.6 µM |  | 8.31 µM | 4.33 µM | 2.22 µM | 2.82 µM |  |  | 2.23 µM | 2.22 µM | 2.11 µM |  | 2.3 µM | 2.03 µM |
| O=C(O)CS | > 100 µM | > 100 µM |  | > 100 µM | > 100 µM | > 100 µM | > 100 µM | > 100 µM | > 100 µM | > 100 µM |  |  |  |  |  |  |  |  |  |  |
